# Experimental data as given in article PMC12458024, “Stabilizing a Native Fold of Alpha-Synuclein with Short Helix-Constrained Peptides” (JACS Au, 2025).
# Entries after “also recorded” stand apart in the source; their conditions may differ. Positions of bridges follow the written chain, without caps; N, C: chain ends. Residues, ends and D or L forms follow the SMILES beside them.
# Tests used:
# [1] = circular dichroism; conditions: 20 mM phosphate; pH 6.5; 30 °C; 20 uM
# [2] = target: T1, αS1–140 (Homo sapiens, UniProt P37840); assay: Lipid-induced αS aggregation assay (ThT kinetics); format: biochemical; conditions: 100 μM αS1–140, 50 μM ThT, 50 μM DMPS SUVs, 20 mM phosphate pH 6.5, 30 °C; peptide 100 and 500 μM; n = 3
# T1 construct: pET21a plasmid encoding human wild-type αS1–140; made in house; host or cells: E. coli BL21 (DE3)
# Description: Dry DMPS lipid powder was accurately weighed using a Sartorius ultramicro balance and dissolved in 20 mM sodium phosphate buffer (pH 6.5) to a final concentration of 2 mM. The lipid was solubilized by shaking in a 2 mL Eppendorf tube on a Thermomixer compact (Eppendorf) at 45 °C, 1400 rpm for 3 h. The solution was then freeze–thawed five times using dry ice and a thermomixer (45 °C, 500 rpm). Vesicle formation was completed by sonication, using a Bandelin Sonopuls sonicator equipped with a TS102 probe, set to 20% amplitude, for 15 cycles (30 s on/30 s off). Vesicles were freshly prepared on the day of use. The SUVs prepared have an average diameter of approximately 30–40 nm, as characterized by dynamic light scattering (DLS) as previously described. This corresponds to vesicle concentrations in the low micromolar range.
# Lipid-induced aggregation experiments were monitored using a CLARIOstar fluorescence microplate reader (BMG Labtech) under quiescent conditions (no shaking) at 30 °C. Experiments were conducted in black, clear-bottom 96-well half-area polystyrene plates with a nonbinding surface (Corning #3881), sealed with aluminum Thermowell sealing tape (Corning #6570). Each well contained 100 μL of reaction volume, run in triplicate, comprising 100 μM αS, 50 μM ThT, 50 μM DMPS (monomeric equivalent), 0.01% sodium azide, and varying concentrations of peptide (0 μM to 1 mM), all in 20 mM phosphate buffer (pH 6.5).
# Instrument settings included a focal height of 4.9 mm and a gain of 800, with an excitation filter of 440 ± 15 nm, an emission filter of 480 ± 15 nm, and a 460 nm dichroic cutoff. Readings were collected from the bottom optic using a spiral averaging (4 mm diameter) with 50 flashes per well, and measurements were taken every 1200 s. The outer wells of the plate were not used to avoid evaporation
# [3] = Circular dichroism: fractional helicity with and without DMPS SUVs (lipid binding); format: physicochemical; conditions: CD, 20 μM peptide, 20 mM phosphate buffer pH 6.5, 30 °C, mean of three independent measurements; for Fractional helicity (fH) with DMPS: 1000 μM DMPS vesicles; for Fractional helicity (fH) no DMPS: no lipid
# Description: Far UV CD spectra scans were then recorded of the solutions on a Chirascan V100 (Applied Photophysics), at 30 °C, in a 1 mm path length quarts cuvette, scanning from 280–190 nm with a 1 nm bandwidth, averaged over 3 scans and blanked against the solutions containing the relevant DMPS vesicles in 20 mM phosphate buffer (pH 6.5).
# Fractional helicity (fH) was calculated according to the equation fH=(θ222−θc)/(θ222∞−θc) where θ222∞ = (−44,000 + 250T)*(1 – k/Nr) and θc = 2220 – 53T. In these equations, the wavelength-dependent constant k = 2.4, Nr = the number of residues, and T is the temperature, 30 °C. ,
# [4] = test system: N2 C. elegans; conditions: dosed at L4, 0–100 μM, day 5 of adulthood
# Description: The C. elegans strain N2 was used as the control, while the transgenic strain NL5901 (unc-54p::αS::YFP), which expresses αS fused to YFP in the body wall muscle cells, was used to model the PD motility phenotype. Worms were synchronized by bleaching with sodium hypochlorite, and the eggs were resuspended in M9 buffer and incubated overnight at 20 °C with shaking (50 rpm) to hatch. Larvae were then transferred to nematode growth medium (NGM) agar plates seeded with E. coli OP50 as a food source and incubated in the dark at 20 °C until they reached the L4 stage.
# L4-stage worms were transferred to fresh NGM agar plates containing 75 μM 5-fluoro-2’deoxyuridine (FUdR), to prevent reproduction, and seeded with E. coli OP50 as a food source. […] Nematodes were incubated in the dark at 20 °C for 5 days. Following incubation, 15 worms per condition were picked using a worm pick and placed in a drop of M9 media on a microscope slide. Movements were recorded immediately for a period of 30 s. For each condition, 5 worms per video were manually scored for the number of body bends per minute. […] A body bend was defined as a full oscillation, where the head returned to a point on the same side.
# [5] = Peptide stability in human serum; format: in vitro ADME; conditions: normal human serum, 30 μM peptide, 37 °C, analytical HPLC peak area normalized to t = 0, triplicate; read-out: Peptide remaining intact in human serum at 48 h
# Description: Serum stability assays were performed in normal human serum. Peptide stocks were initially prepared at 600 μM in H2O, and 75 μL of this stock was added to 1425 μL of normal human serum (Merck), yielding a final concentration of 30 μM. Samples were incubated at 37 °C, and 100 μL aliquots were collected at designated time points (0, 1, 2, 3, 4, 6, 22, 24, and 48 h) and then immediately stored at −80 °C. After all time points, the samples were thawed and mixed with 300 μL of acetonitrile:water (3:1, v/v) by vortexing to ensure complete mixing. Following centrifugation at 14500 rpm for 20 min, 200 μL of the supernatant was analyzed by HPLC using a Phenominex Luna 5 μm C18 100 Å analytical column, eluted with a 0–50% acetonitrile gradient containing 0.1% TFA. Peak areas were integrated and normalized to the 0-h sample. Each peptide was tested in triplicate.
# [6] = test system: SH-SY5Y cells; assay: Alamar Blue toxicity assay; format: cell-based, human; conditions: 0–20 μM RhoB-labeled peptide, 30–36 h, relative to untreated controls
# Description: (§1) SH-SY5Y cells were plated at a density of 5,000 cells well^–1 in a half-area 96-well plate. Twenty-four hours after plating, the media was removed and replaced with media containing 10 or 20 μM of rhodamine-B labeled peptide or the equivalent volume of PBS. Cells were incubated with peptides for a further 30–36 h. As a positive control for cell lysis, 3 wells of cells were treated with 5% Triton-X 100 for 20 min, and then 20 μL of media was harvested from all wells for ToxiLight analysis according to the manufacturer’s instructions (Lonza Biologics PLC, LT07–217). Cells were then washed once with PBS and incubated for 90 min with a 1:10 dilution of AlamarBlue reagent (Invitrogen, DAL1025). Media was harvested and the fluorescence measured according to the manufacturer’s instructions. Cells were then washed twice with PBS and incubated with a 1:12.5 dilution of NucBlue (ThermoFisher Scientific, R37605) and a 1:500 dilution of CellTracker Deep Red (Invitrogen, C34565) in media for a further 30 min. Cells were then washed 2 more times in PBS and imaged.
# [7] = test system: SH-SY5Y cells; assay: ToxiLight toxicity assay; format: cell-based, human; conditions: 0–20 μM RhoB-labeled peptide, 30–36 h, Triton X-100 positive control
# Description: as §1
Structure (SMILES),helicity [1] [%],Effect on lipid-induced αS1–140 aggregation (ThT) [2],Fractional helicity (fH) with DMPS [3] [%],Fractional helicity (fH) no DMPS [3] [%],Thrashing rate of wild-type N2 worms [4],"remaining at 48 h, 30 μM [5] [%]","Cytotoxicity, Alamar Blue [6]","Cytotoxicity, ToxiLight [7]"
CSCC[C@H](NC(=O)[C@H](Cc1ccccc1)NC(=O)[C@@H](NC(=O)[C@H](CC(=O)O)NC(C)=O)C(C)C)C(=O)N[C@@H](CCCCN)C(=O)NCC(=O)N[C@@H](CC(C)C)C(=O)N[C@@H](CO)C(=O)N[C@@H](CCCCN)C(=O)N[C@@H](C)C(=O)N[C@@H](CCCCN)C(N)=O (Ac-DVFMKGLSKAK-NH2),8.1,–,–,–,–,–,–,–
CSCC[C@@H]1NC(=O)[C@H](Cc2ccccc2)NC(=O)[C@H](C(C)C)NC(=O)[C@@H](NC(C)=O)CCCCNC(=O)C[C@@H](C(=O)NCC(=O)N[C@@H](CC(C)C)C(=O)N[C@@H](CO)C(=O)N[C@@H](CCCCN)C(=O)N[C@@H](C)C(=O)N[C@@H](CCCCN)C(N)=O)NC1=O [αS2–12(L1)] (Ac-KVFMDGLSKAK-NH2; lactam 1-5),–,enhanced αS aggregation,0.0,0.0,–,–,–,–
CSCC[C@@H]1NC(=O)[C@H](Cc2ccccc2)NC(=O)[C@@H](NC(=O)[C@H](CC(=O)O)NC(C)=O)CCCCNC(=O)C[C@@H](C(=O)N[C@@H](CC(C)C)C(=O)N[C@@H](CO)C(=O)N[C@@H](CCCCN)C(=O)N[C@@H](C)C(=O)N[C@@H](CCCCN)C(N)=O)NC(=O)[C@H](CCCCN)NC1=O [αS2–12(L2)] (Ac-DKFMKDLSKAK-NH2; lactam 2-6),–,most effective inhibition,14.5,30.9,–,–,–,–
CSCC[C@@H]1NC(=O)[C@@H](NC(=O)[C@@H](NC(=O)[C@H](CC(=O)O)NC(C)=O)C(C)C)CCCCNC(=O)C[C@@H](C(=O)N[C@@H](CO)C(=O)N[C@@H](CCCCN)C(=O)N[C@@H](C)C(=O)N[C@@H](CCCCN)C(N)=O)NC(=O)CNC(=O)[C@H](CCCCN)NC1=O [αS2–12(L3)] (Ac-DVKMKGDSKAK-NH2; lactam 3-7),–,most effective inhibition; also recorded: greatest inhibition of αS1–140 aggregation,2.9,14.6,–,–,–,–
CC(=O)N[C@@H](CC(=O)O)C(=O)N[C@H](C(=O)N[C@@H](Cc1ccccc1)C(=O)N[C@H]1CCCCNC(=O)C[C@@H](C(=O)N[C@@H](CCCCN)C(=O)N[C@@H](C)C(=O)N[C@@H](CCCCN)C(N)=O)NC(=O)[C@H](CC(C)C)NC(=O)CNC(=O)[C@H](CCCCN)NC1=O)C(C)C [αS2–12(L4)] (Ac-DVFKKGLDKAK-NH2; lactam 4-8),–,enhanced αS aggregation,27.7,12.4,–,–,–,–
CSCC[C@H](NC(=O)[C@H](Cc1ccccc1)NC(=O)[C@@H](NC(=O)[C@H](CC(=O)O)NC(C)=O)C(C)C)C(=O)N[C@H]1CCCCNC(=O)C[C@@H](C(=O)N[C@@H](C)C(=O)N[C@@H](CCCCN)C(N)=O)NC(=O)[C@H](CO)NC(=O)[C@H](CC(C)C)NC(=O)CNC1=O [αS2–12(L5)] (Ac-DVFMKGLSDAK-NH2; lactam 5-9),–,–,3.3,28.9,–,–,–,–
CSCC[C@H](NC(=O)[C@H](Cc1ccccc1)NC(=O)[C@@H](NC(=O)[C@H](CC(=O)O)NC(C)=O)C(C)C)C(=O)N[C@@H](CCCCN)C(=O)N[C@H]1CCCCNC(=O)C[C@@H](C(=O)N[C@@H](CCCCN)C(N)=O)NC(=O)[C@H](CCCCN)NC(=O)[C@H](CO)NC(=O)[C@H](CC(C)C)NC1=O [αS2–12(L6)] (Ac-DVFMKKLSKDK-NH2; lactam 6-10),31.4,–,–,–,no change in thrashing rate,16,No significant toxicity,No significant toxicity
CSCC[C@H](NC(=O)[C@H](Cc1ccccc1)NC(=O)[C@@H](NC(=O)[C@H](CC(=O)O)NC(C)=O)C(C)C)C(=O)N[C@@H](CCCCN)C(=O)NCC(=O)N[C@H]1CCCCNC(=O)C[C@@H](C(N)=O)NC(=O)[C@H](C)NC(=O)[C@H](CCCCN)NC(=O)[C@H](CO)NC1=O [αS2–12(L7)] (Ac-DVFMKGKSKAD-NH2; lactam 7-11),–,enhanced αS aggregation,16.8,15.8,–,–,–,–
